Experimental data reported in patent US12516341B2, “Use of flavonoid glycoside substance and glycosyltransferase gene for regulating resistance of plants to weeds” (ZHONGKENONGFU(BEIJING) BIOTECHNOLOGY CO., LTD, priority 2020, dated 2026).

Legend:
lettuce = assay: External application of compound to lettuce seeds on agar, root length; format: in vivo; settings: external application concentration 500 mg/L in 0.8% agar; 28° C. in the dark for 3 days; compared with control
Description: (§1) The reasons for choosing lettuce and barnyardgrass in the external application experiment were: lettuce was a common indicator crop reported in the literature for external application of allelopathic experiments, while barnyardgrass was the main weed in paddy fields.
(§2) (1) The compound of tricin-5-O-glucopyranoside was dried to a powder with a centrifugal concentrator and weighed, and an appropriate amount of sterile water was added to give a final concentration of 10 mg/mL.
(§3) (2) 500 mL of 0.8% agar was prepared and sterilized in an autoclave.
(§4) (3) The sterilized agar was placed in an ultra-clean bench and cooled to room temperature (note: the medium was not allowed to solidify), and then 4.75 mL of medium was accurately pipetted into a sterilized 10 mL centrifuge tube. 250 μL of the 10 mg/mL compound solution was added to give a final compound concentration of 500 mg/L. The medium containing the compound was quickly poured into a 10 cm×10 cm square dish, and the square dish was shaken quickly to make the medium evenly spread in the square dish. A medium in which 250 μL of sterile water was added to 4.75 mL of the medium was used as a control.
(§5) (4) Barnyardgrass and lettuce seeds were washed several times with distilled water, respectively, and then dried on sterile filter paper. […]
(§6) (7) Phenotypic statistics: the root length of each treated material was counted after 3 days. […]

barnyardgrass = assay: External application of compound to barnyardgrass seeds on agar, root length; format: in vivo; settings: external application concentration 500 mg/L in 0.8% agar; 28° C. in the dark for 3 days; compared with control
Description: as §1, §2, §3, §4, §5, §6

[1] = test system: Os07g0503900 recombinant protein; assay: In vitro enzyme activity of Os07g0503900 (glycosylation of tricin with UDPG, UPLC-MS detection); format: biochemical, rice; settings: glycosyl donor UDPG; 30° C. for 1 h; pH 7.0; product tricin-5-O-glucopyranoside
Description: (1) The enzymatic reaction system was: Tris-HCl (pH 7.0, 50 mM, containing 10 mM DTT) 38 μL, 10 mM glycosyl acceptor (the glycosyl acceptor of Os07g0503900 was tricin) 1 μL, 100 mM glycosyl donor (UDPG) 1 μL, and 10 μL of the Os07g0503900 recombinant protein obtained in step 2 (Os07g0503900 protein concentration was 3.77 μg/μL). The reaction was carried out in a water bath at 30° C. for 1 h, and then quenched with an equal volume of methanol. A sample of the protein obtained from the E. coli transformed into the pMAL-c2X empty vector according to the above-mentioned step 2 was added as a control.
(2) Enzyme activity product detection: The sample in (1) was centrifuged at 4° C., 12,000 rpm for 10 min, and 30 μL was taken for detection by UPLC-MS (Agilent 1290UPLC-6540Q-TOF). Mobile phase A phase: 0.1% formic acid aqueous solution, % represented volume percentage; B phase: acetonitrile. Elution gradient: 0-2 min: 5% B-10% B, 2-12 min: 10% B-25% B, 12-18 min: 25% B-70% B, 18-23 min: 70% B-90% B, 23-25 min: 90% B-100% B, 25-30 min: 100% B, post-run for 5 min, % all represented volume percentage. The flow rate was 0.3 mL/min, the column temperature: 40° C., and the injection volume: 5 μL. Electrospray ionization (ESI) was used for detection in positive ion mode. The carrier gas was high-purity nitrogen at a pressure of 40 psi and a temperature of 325° C.

SMILES | inhibitory effect on the growth of lettuce (root length) (lettuce) | inhibitory effect on the growth of barnyardgrass (root length) (barnyardgrass) | glycosylation of tricin by Os07g0503900 in vitro (new chromatographic peak vs empty vector control) [1]
COc1cc(-c2cc(=O)c3c(O[C@@H]4O[C@H](CO)[C@@H](O)[C@H](O)[C@H]4O)cc(O)cc3o2)cc(OC)c1O [tricin-5-O-glucopyranoside] | very significant ability to inhibit the growth | very significant ability to inhibit the growth | 
COc1cc(-c2cc(=O)c3c(O)cc(O)cc3o2)cc(OC)c1O [tricin] | not obvious | not obvious | Os07g0503900 can catalyze the glycosylation of tricin in vitro
